Experiments:
Format in all cases: binding
[1] = system: T1, STAT5B-NTD; assay: Intact MS photoaffinity labeling screen, STAT5B-NTD (365 nm, UHPLC-MS); conditions: for MS labeling percentage, STAT5B: STAT5B-NTD, 365 nm 10 min, no photocatalyst; for STAT5B-NTD: experimental hit status flag (0/1); for experimental hit status STAT5B-NTD: 0/1 flag;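 as to MS labeling percentage, STAT5B: 0.17 µL of 100 mM DMSO fragment stock added to the protein sample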
T1 construct: His-SUMO (N, cleaved yes); made in house; host or cells: E. coli BL21 RILP
Method: STAT5B protein in 7 µM concentration in pH 7.4 PBS buffer was pre-incubated with 0.17 µL PhP (in 100 mM DMSO solution) for 1 h at room temperature in dark. Irradiation was carried out at 4 °C for 10 min using 365 nm UV lamp.
(§1) During the analysis, the column temperature was maintained at a constant 60 °C, and a sample volume of 3 µL was injected for each analysis. Data acquisition was conducted in positive ion mode within the m/z 100–2000 (mass-to-charge ratio) range. For the full protocol and spectra of the hits, see Supplementary Note 2.

[2] = system: lysozyme (Lyo); assay: Intact protein MS photoaffinity labeling screen, lysozyme; conditions: intact protein MS after 10 min irradiation
Method: (§2) Using a plate-based format with one fragment per well, each fragment was incubated with the target proteins for 15 min to allow for the formation of non-covalent interactions. […] Finally, the results were directly analyzed from the plate using intact protein mass spectrometry by observing the mass additions that correspond to successful labeling (Fig. 2c, for labeling % values see Supplementary data). The library was first characterized against three benchmark proteins like carbonic anhydrase (CA), lysozyme (Lyo), and myoglobin (Myo).

[3] = system: carbonic anhydrase II (CA); assay: Intact protein MS photoaffinity labeling screen, carbonic anhydrase; conditions: intact protein MS after 10 min irradiation
Method: as §2

[4] = system: T2, BRD4-BD1; assay: Intact MS photoaffinity labeling screen, BRD4-BD1 (302 nm, LCMS-TOF); conditions: for MS labeling percentage, BRD4: BRD4-BD1, 302 nm 10 min; for BRD4-BD1: experimental hit status flag (0/1); for experimental hit status BRD4-BD1: 0/1 flag
T2 construct: screened the PhP library against the first bromodomain of BRD4 (BRD4-BD1); purchased GSK/GenScript
Method: as §2
(§3) The PhP library was screened against BRD4-BD1 and KRas^G12D as follows. […] The probe plate was placed on ice. 15 μL of protein stock solution (1 μM BRD4-BD1 (GSK/GenScript) or KRas^G12D (GSK/GenScript) in PBS buffer) was dispensed into wells containing fragments. The plate was left on ice for 15 min for incubation, then irradiated at 302 nm for 10 min, and centrifuged (1000 rpm, 1 min) to remove any bubbles. […] The deconvoluted spectra were analyzed using R Studio software.

[5] = system: myoglobin (Myo); assay: Intact protein MS photoaffinity labeling screen, myoglobin; conditions: intact protein MS after 10 min irradiation
Method: as §2

[6] = system: T1, STAT5B-NTD; assay: Intact MS labeling screen, STAT5B-NTD conjugated with photocatalyst Ir-G2-PEG3-COOH (450 nm); conditions: 450 nm 10 min;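 also: 0.14 µL of 100 mM DMSO fragment stock added to the conjugate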
Method: For the photocatalysis experiments, 1.4 µL photocatalyst (in 1.4 mM DMSO solution, 10 eq) was pre-incubated with 1.5 µL coupling reagent (0.75 µL, 5.6 mM EDC (20 eq)+0.75 µL 4.2 mM NHS and 1.5 µL 2.1 mM (15 eq) BOP for 30 min in dark. 30 µL STAT5B-NTD (in 7 µM concentration) was added and incubated further at room temperature overnight or at 37 °C for 1 h in dark. After addition of 0.14 µL PhP (in 100 mM DMSO) the solution was further incubated in dark for 1 h. Irradiation was carried out using 450 nm LED lamp (7.6Vx0A) for 10 min at 4 °C.
as §1

[7] = system: T3, KRas^G12D; assay: Intact MS photoaffinity labeling screen, KRas G12D (302 nm, LCMS-TOF); conditions: for MS labeling percentage, KRas: KRas G12D, 302 nm 10 min; for KRAS-G12D: experimental hit status flag (0/1); for experimental hit status KRAS-G12D: 0/1 flag
T3 construct: purchased GSK/GenScript
Method: as §2, §3

Row | MS labeling percentage, CA [3] | SMILES | MS labeling percentage, STAT5B [1] | STAT5B-NTD [1] | MS labeling percentage, Lyo [2] | MS labeling percentage, BRD4 [4] | BRD4-BD1 [4] | MS labeling percentage, Myo [5] | MS labeling percentage, STAT5B+photocat [6] | MS labeling percentage, KRas [7] | KRAS-G12D [7] | experimental hit status STAT5B-NTD [1] | experimental hit status BRD4-BD1 [4] | experimental hit status KRAS-G12D [7]
1 | 0.2% | CCOC(=O)c1c(NC(=O)CCC2(C)N=N2)sc2c1CCN(Cc1ccccc1)C2 [PhP002, N1=NC1(C)CCC(=O)Nc(s2)c(C(=O)OCC)c(c23)CCN(C3)Cc4ccccc4] | 0% | 0 | 0% | 0.1% | 0 | 0.1% | 0% | 0.2% | 0 |  |  | 
2 | 0.1% | Cc1[nH]c2ccc(CNC(=O)CCC3(C)N=N3)cc2c1C [PhP004, Cc([nH]1)c(C)c(c12)cc(cc2)CNC(=O)CCC3(C)N=N3] | 2.9% | 0 | 0% |  | 0 | 0.3% | 13% | 0.7% | 0 |  |  | 
3 | 0.9% | CC1(CCC(=O)NCc2cncc3ccccc23)N=N1 [PhP008, N1=NC1(C)CCC(=O)NCc(cnc2)c(c23)cccc3] | 2.9% | 0 | 0% | 0.5% | 0 | 0.6% | 19.6% | 1% | 0 |  |  | 
4 | 0% | CC1(CCC(=O)NCc2ccc(N3CCC(CO)CC3)cc2)N=N1 [PhP010, N1=NC1(C)CCC(=O)NCc2ccc(cc2)N3CCC(CO)CC3] | 1% | 0 | 0% | 0.3% | 0 | 0% | 0% | 0.5% | 0 |  |  | 
5 | 0% | CC1(CCC(=O)Nc2nc(-c3c[nH]c(C(N)=O)c3)cs2)N=N1 [PhP011, N1=NC1(C)CCC(=O)Nc2nc(cs2)-c3c[nH]c(c3)C(=O)N] | 2% | 0 | 0% | 0.2% | 0 | 0% | 3.4% | 0.2% | 0 |  |  | 
6 | 0.3% | COC(=O)C(Cc1c[nH]c2ccccc12)NC(=O)CCC1(C)N=N1 (centres unmarked) [PhP014, N1=NC1(C)CCC(=O)NC(C(=O)OC)Cc(c[nH]2)c(c23)cccc3] | 2% | 0 | 0.3% | 0.4% | 0 | 0.1% | 7.7% | 1.3% | 0 |  |  | 
7 | 0.3% | CC1(CCC(=O)NC2CCCC(NC(=O)OC(C)(C)C)C2)N=N1 (centres unmarked) [PhP015, CC(C)(C)OC(=O)NC1CCCC(C1)NC(=O)CCC2(C)N=N2] | 1% | 0 | 1.1% | 0.3% | 0 | 0.2% | 1.6% | 0.6% | 0 |  |  | 
8 | 0.6% | CC1(CCC(=O)NC2CCc3nc(C(C)(C)C)cn3C2)N=N1 (centres unmarked) [PhP016, CC(C)(C)c(c1)nc(n12)CCC(C2)NC(=O)CCC3(C)N=N3] | 0% | 0 | 0% | 0.3% | 0 | 0.2% | 8.9% | 0.2% | 0 |  |  | 
9 | 0.6% | Cc1nc2cc(NC(=O)CCC3(C)N=N3)ccc2n1-c1ccccc1 [PhP017, c1ccccc1-n(c(n2)C)c(c23)ccc(c3)NC(=O)CCC4(C)N=N4] | 1% | 0 | 0.1% | 3.4% | 0 | 0.5% | 4.4% | 0.9% | 0 |  |  | 
10 | 0.2% | COC(=O)C(NC(=O)CCC1(C)N=N1)c1ccc(C)cc1 (centres unmarked) [PhP019, c1cc(C)ccc1C(C(=O)OC)NC(=O)CCC2(C)N=N2] | 1% |  | 0% | 0.3% |  | 0.1% | 2.7% | 0% |  | 0 | 0 | 0
11 | 0.2% | Cn1c(CCNC(=O)CCC2(C)N=N2)nc2ccccc21 [PhP020, c1cccc(c12)n(C)c(n2)CCNC(=O)CCC3(C)N=N3] | 0% |  | 0% | 0.4% |  | 0.3% | 0.6% | 0% |  | 0 | 0 | 0

Row | SMILES | MS labeling percentage, CA [3] | MS labeling percentage, STAT5B [1] | STAT5B-NTD [1] | MS labeling percentage, Lyo [2] | MS labeling percentage, BRD4 [4] | BRD4-BD1 [4] | MS labeling percentage, Myo [5] | MS labeling percentage, STAT5B+photocat [6] | MS labeling percentage, KRas [7] | KRAS-G12D [7] | experimental hit status STAT5B-NTD [1] | experimental hit status BRD4-BD1 [4] | experimental hit status KRAS-G12D [7]
12 | CCOC(=O)[C@H](NC(=O)CCC1(C)N=N1)c1ccccc1 [PhP005, c1ccccc1[C@H](C(=O)OCC)NC(=O)CCC2(C)N=N2] | 0.1% | 2% | 0 | 0% | 0.1% | 0 | 0.1% | 1.5% | 0% | 0 |  |  | 
13 | COc1ccc(-c2csc(CCNC(=O)CCC3(C)N=N3)n2)cc1 [PhP006, COc1ccc(cc1)-c2csc(n2)CCNC(=O)CCC3(C)N=N3] | 0.6% | 0% | 0 | 0% | 2.3% | 0 | 0.3% | 3.3% | 1.3% | 0 |  |  | 
14 | CN1C(=O)COc2ccc(NC(=O)CCC3(C)N=N3)cc21 [PhP007, O1CC(=O)N(C)c(c12)cc(cc2)NC(=O)CCC3(C)N=N3] | 0.2% | 1% | 0 | 1.8% | 0.4% | 0 | 0.1% | 12.7% | 0.2% | 0 |  |  | 
15 | Cc1[nH]cnc1CNC(=O)CCC1(C)N=N1 [PhP009, Cc1[nH]cnc1CNC(=O)CCC2(C)N=N2] | 0.6% | 1% | 0 | 0% | 0.7% | 0 | 0.4% | 1% | 0.7% | 0 |  |  | 
16 | CC(Cc1cccc(OCc2ccccc2)c1)NC(=O)CCC1(C)N=N1 (centres unmarked) [PhP013, N1=NC1(C)CCC(=O)NC(C)Cc2cccc(c2)OCc3ccccc3] | 0.4% | 0% | 0 | 0.3% | 40.6% | 0 | 0.3% | 8.8% |  | 0 |  |  | 

Source: article PMC11292009, “Mapping protein binding sites by photoreactive fragment pharmacophores” (Communications Chemistry, 2024)
